Test results: patent publication US20210283107A1, “Methods to Expand the Spectrum of Gram-Positive Antibiotics” (NORTH CAROLINA STATE UNIVERSITY, priority 2016, published 2021)
Converted amounts (≈) assume the structure as drawn.

Columns and labels:
[1] = system: A. baumannii mutant AB1310; assay: Dose dependent resistance suppression (antibiotic MIC with compound) in AB1310; type: cell-based, Acinetobacter baumannii
Experimental: There was no notable reduction in antibiotic MIC observed with either compound and both strains 522 and 1310. […] Even at the highest concentration, no potentiation was observed.
(§1) Day Cultures (6 h) were subcultured to 5×10^5 CFU/mL in cation adjusted Mueller-Hinton broth (CAMHB). […] One milliliter of the resulting solution was aliquoted into a separate culture tube and was dosed with antibiotic so that the resulting concentration was the highest desirable concentration to be tested. Bacteria treated with antibiotic alone were used as a control. Row one of a 96-well plate was filled with 200 μL of the antibiotic/compound solution, and the remaining rows were filled with 100 μL of the remaining 4 mL bacterial subculture. The wells in row one were mixed five times before 100 μL was transferred to the following row (row two). Row two was then mixed five times, and 100 μL was transferred to row three. This process was repeated until the second to last row had been reached. The last row is left unexposed to antibiotic in order to serve as a negative control. The antibiotic only treated bacteria was plated by aliquoting 200 μL of the treated bacteria into row one and filling the remaining rows with untreated bacteria from the original bacteria subculture. The rows were mixed in the same way as described above. Plates were covered with Glad Press n'Seal and were incubated under stationary conditions at 37° C. for 16 hours. MIC values were recorded as the lowest concentration at which no bacterial growth was observed. Fold reductions were determined by comparison of the compound treated wells with the antibiotic only treated control wells.

[2] = system: A. baumannii mutant AB522; assay: MIC against Tn-seq transposon mutant AB522; type: cell-based; settings: Acinetobacter baumannii
Experimental: (§2) During individual MIC screening, two mutants, AB522 and AB1310, were identified due to their increased sensitivity to the three macrolide antibiotics and vancomycin when compared to AB 5075 (Table 17).
(§3) Day Cultures (6 h) were subcultured to 5×10^5 CFU/mL in cation adjusted Mueller-Hinton broth (CAMHB). Aliquots (1 mL) were placed in culture tubes, and compound was added from 100 mM stock solutions, such that the compound concentration equaled the highest concentration tested (200 μM or 64 μg/mL). Samples were then aliquoted (200 μL) into the first row of wells of a 96-well plate, with all remaining wells being filled with 100 μL of initial bacterial subculture. The wells in row one were mixed five times before 100 μL was transferred to the following row (row two). Row two was then mixed five times, and 100 μL was transferred to row three. This processed was repeated until the final row had been mixed. This process provided a serial dilution of the compound. Plates were covered with Glad Press n'Seal and were incubated under stationary conditions at 37° C. for 16 hours. MIC values were recorded as the lowest concentration at which no bacterial growth was observed.

[3] = system: A. baumannii strain 4448; assay: Potentiation of clarithromycin and vancomycin against clinical isolate; type: cell-based, Acinetobacter baumannii; settings: with compound at 30 μM
Experimental: (§4) As previously stated, A. baumannii 5075 was chosen for these studies due to its virulence and multidrug resistance, but to further analyze the activity of our lead compounds, 23 A. baumannii clinical isolates obtained from Walter Reed Army Institute of Research (WRAIR) were tested.
as §1

[4] = system: A. baumannii strain 4052; assay: as above; type: cell-based, Acinetobacter baumannii; settings: with compound at 30 μM
Experimental: as §4, §1

[5] = system: A. baumannii strain 4878; assay: as above; type: cell-based, Acinetobacter baumannii; settings: with compound at 30 μM
Experimental: as §4, §1

[6] = system: A. baumannii strain 4795; assay: as above; type: cell-based, Acinetobacter baumannii; settings: with compound at 30 μM
Experimental: as §4, §1

[7] = system: A. baumannii strain 3560; assay: as above; type: cell-based, Acinetobacter baumannii; settings: with compound at 30 μM
Experimental: as §4, §1

[8] = system: A. baumannii strain 4025; assay: as above; type: cell-based, Acinetobacter baumannii; settings: with compound at 30 μM
Experimental: as §4, §1

[9] = system: A. baumannii strain 4857; assay: as above; type: cell-based, Acinetobacter baumannii; settings: with compound at 30 μM
Experimental: as §4, §1

[10] = system: A. baumannii strain 4991; assay: as above; type: cell-based, Acinetobacter baumannii; settings: with compound at 30 μM
Experimental: as §4, §1

[11] = system: A. baumannii strain 5001; assay: as above; type: cell-based, Acinetobacter baumannii; settings: with compound at 30 μM
Experimental: as §4, §1

[12] = system: A. baumannii strain 4498; assay: as above; type: cell-based, Acinetobacter baumannii; settings: with compound at 30 μM
Experimental: as §4, §1

[13] = system: A. baumannii strain 4027; assay: as above; type: cell-based, Acinetobacter baumannii; settings: with compound at 30 μM
Experimental: as §4, §1

[14] = system: A. baumannii strain 5256; assay: as above; type: cell-based, Acinetobacter baumannii; settings: with compound at 30 μM
Experimental: as §4, §1

[15] = system: A. baumannii strain 3927; assay: as above; type: cell-based, Acinetobacter baumannii; settings: with compound at 30 μM
Experimental: as §4, §1

[16] = system: A. baumannii strain 3785; assay: as above; type: cell-based, Acinetobacter baumannii; settings: with compound at 30 μM
Experimental: as §4, §1

[17] = system: A. baumannii strain 4026; assay: as above; type: cell-based, Acinetobacter baumannii; settings: with compound at 30 μM
Experimental: as §4, §1

[18] = system: A. baumannii strain 5197; assay: as above; type: cell-based, Acinetobacter baumannii; settings: with compound at 30 μM
Experimental: as §4, §1

[19] = system: A. baumannii strain 3806; assay: as above; type: cell-based, Acinetobacter baumannii; settings: with compound at 30 μM
Experimental: as §4, §1

[20] = system: A. baumannii mutant AB1310; assay: MIC against Tn-seq transposon mutant AB1310; type: cell-based; settings: Acinetobacter baumannii
Experimental: as §2, §3

## Nc1nc(-c2ccc(NC(=O)c3cc(Cl)cc(Cl)c3)cc2)c[nH]1 [Compound 1]
[1]; compound Conc. Tested 2 (μM)
  Azithromycin MIC: 4 µg/mL
  Clarithromycin MIC: 1 µg/mL
  Erythromycin MIC: 4 µg/mL
  Vancomycin MIC: 64 µg/mL
[1]; compound Conc. Tested 3 (μM)
  Azithromycin MIC: 4 µg/mL
  Clarithromycin MIC: 1 µg/mL
  Erythromycin MIC: 2 µg/mL
  Vancomycin MIC: 64 µg/mL
[1]; compound Conc. Tested 4 (μM)
  Azithromycin MIC: 4 µg/mL
  Clarithromycin MIC: 0.5 µg/mL
  Erythromycin MIC: 4 µg/mL
  Vancomycin MIC: 64 µg/mL
[1]; compound Conc. Tested 5 (μM)
  Azithromycin MIC: 4 µg/mL
  Clarithromycin MIC: 0.5 µg/mL
  Erythromycin MIC: 2 µg/mL
  Vancomycin MIC: 32 µg/mL
[2]
  MIC: 12.5 µM (≈ 4.34 µg/mL)
[3]
  Clarithromycin MIC: ≤0.25 µg/mL
  Vancomycin MIC: 1 µg/mL
[4]
  Clarithromycin MIC: ≤0.25 µg/mL
  Vancomycin MIC: 4 µg/mL
[5]
  Clarithromycin MIC: 0.5 µg/mL
  Vancomycin MIC: 2 µg/mL
[6]
  Clarithromycin MIC: 0.5 µg/mL
  Vancomycin MIC: 4 µg/mL
[7]
  Clarithromycin MIC: 0.5 µg/mL
  Vancomycin MIC: 0.5 µg/mL
[8]
  Clarithromycin MIC: 0.25 µg/mL
  Vancomycin MIC: 2 µg/mL
[9]
  Clarithromycin MIC: 0.5 µg/mL
  Vancomycin MIC (μg/mL): Toxic
[10]
  Clarithromycin MIC: 0.5 µg/mL
  Vancomycin MIC: 32 µg/mL
[11]
  Clarithromycin MIC: 0.5 µg/mL
  Vancomycin MIC: 2 µg/mL
[12]
  Clarithromycin MIC: ≤0.25 µg/mL
  Vancomycin MIC: 1 µg/mL
[13]
  Clarithromycin MIC: ≤0.25 µg/mL
  Vancomycin MIC: 1 µg/mL
[14]
  Clarithromycin MIC: 0.25 µg/mL
  Vancomycin MIC: 2 µg/mL
[15]
  Clarithromycin MIC: 0.5 µg/mL
  Vancomycin MIC: 8 µg/mL
[16]
  Clarithromycin MIC: 0.5 µg/mL
  Vancomycin MIC: 1 µg/mL
[17]
  Clarithromycin MIC: 0.5 µg/mL
  Vancomycin MIC: 2 µg/mL
[18]
  Clarithromycin MIC: 0.5 µg/mL
  Vancomycin MIC: 16 µg/mL
[19]
  Clarithromycin MIC: 0.25 µg/mL
  Vancomycin MIC: 2 µg/mL
[20]
  MIC: 12.5 µM (≈ 4.34 µg/mL)

## Nc1nc(-c2ccc(NC(=O)c3cc(Br)cc(Br)c3)cc2)c[nH]1 [Compound 4]
[1]; compound Conc. Tested 2 (μM)
  Azithromycin MIC: 4 µg/mL
  Clarithromycin MIC: 2 µg/mL
  Erythromycin MIC: 4 µg/mL
  Vancomycin MIC: 64 µg/mL
[1]; compound Conc. Tested 3 (μM)
  Azithromycin MIC: 4 µg/mL
  Clarithromycin MIC: 1 µg/mL
  Erythromycin MIC: 2 µg/mL
  Vancomycin MIC: 32 µg/mL
[1]; compound Conc. Tested 4 (μM)
  Azithromycin MIC: 4 µg/mL
  Clarithromycin MIC: 1 µg/mL
  Erythromycin MIC: 2 µg/mL
  Vancomycin MIC: 32 µg/mL
[1]; compound Conc. Tested 5 (μM)
  Azithromycin MIC: 4 µg/mL
  Clarithromycin MIC: 0.5 µg/mL
  Erythromycin MIC: 2 µg/mL
  Vancomycin MIC: 32 µg/mL
[2]
  MIC: 12.5 µM (≈ 5.45 µg/mL)
[3]
  Clarithromycin MIC: ≤0.25 µg/mL
  Vancomycin MIC: 4 µg/mL
[4]
  Clarithromycin MIC: ≤0.25 µg/mL
  Vancomycin MIC: 64 µg/mL
[5]
  Clarithromycin MIC: 1 µg/mL
  Vancomycin MIC: 1 µg/mL
[6]
  Clarithromycin MIC: 0.5 µg/mL
  Vancomycin MIC: 4 µg/mL
[7]
  Clarithromycin MIC: 0.5 µg/mL
  Vancomycin MIC: 32 µg/mL
[8]
  Clarithromycin MIC: 0.25 µg/mL
  Vancomycin MIC: 16 µg/mL
[9]
  Clarithromycin MIC: 0.5 µg/mL
  Vancomycin MIC (μg/mL): Toxic
[10]
  Clarithromycin MIC: 0.5 µg/mL
  Vancomycin MIC: 32 µg/mL
[11]
  Clarithromycin MIC: 0.5 µg/mL
  Vancomycin MIC: 1 µg/mL
[12]
  Clarithromycin MIC: ≤0.25 µg/mL
  Vancomycin MIC: 16 µg/mL
[13]
  Clarithromycin MIC: 0.25 µg/mL
  Vancomycin MIC: 32 µg/mL
[14]
  Clarithromycin MIC: 0.25 µg/mL
  Vancomycin MIC: 8 µg/mL
[15]
  Clarithromycin MIC: 0.5 µg/mL
  Vancomycin MIC: 64 µg/mL
[16]
  Clarithromycin MIC: 0.5 µg/mL
  Vancomycin MIC: 128 µg/mL
[17]
  Clarithromycin MIC: 1 µg/mL
  Vancomycin MIC: 16 µg/mL
[18]
  Clarithromycin MIC: 0.5 µg/mL
  Vancomycin MIC: 8 µg/mL
[19]
  Clarithromycin MIC: ≤0.125 µg/mL
  Vancomycin MIC: 32 µg/mL
[20]
  MIC: 12.5 µM (≈ 5.45 µg/mL)
